# According to patent publication US9676704B2, “Pesticidal compositions and processes related thereto” (Dow AgroSciences LLC, priority 2014, dated 2017):
# Key:
# Beet Armyworm (BAW) = experiment: Bioassays on BAW, 128-well diet tray assay; format: in vivo; conditions: Spodoptera exigua; for mortality at 50 µg/cm2: 168 h, 50 μg/cm^2 on artificial diet, second instar larvae, five to seven days, 25° C., read-out: BAW % Control (or Mortality) rating; for mortality at 0.05 µg/cm2: 0.05 μg/cm^2; for mortality at 0.05 µg/cm2 / mortality at 0.5 µg/cm2 / mortality at 5 µg/cm2: read-out: BAW Percent control (or mortality); for mortality at 0.5 µg/cm2: 0.5 μg/cm^2; for mortality at 5 µg/cm2: 5 μg/cm^2
# Method: Bioassays on BAW were conducted using a 128-well diet tray assay. one to five second instar BAW larvae were placed in each well (3 mL) of the diet tray that had been previously filled with 1 mL of artificial diet to which 50 μg/cm^2 of the test compound (dissolved in 50 μL of 90:10 acetone-water mixture) had been applied (to each of eight wells) and then allowed to dry. Trays were covered with a clear self-adhesive cover, and held at 25° C., 14:10 light-dark for five to seven days. Percent mortality was recorded for the larvae in each well; activity in the eight wells was then averaged. The results are indicated in the tables entitled “Table ABC: Assay Results (F)”, “Table ABCD: Assay Results (C)”, and “Table ABCDE: Assay Results (P)” (See Table Section).
# (§1) Bioassays on BAW and CL were conducted according to the procedures outlined in Example A: Bioassays on Beet Armyworm (“BAW”) and Cabbage Looper (“CL”) using the following concentrations: 5, 0.5, and 0.05 μg/cm^2.
# Cabbage Looper (CL) = experiment: Bioassays on CL, 128-well diet tray assay; format: in vivo; conditions: Trichoplusia ni; for mortality at 50 µg/cm2: 168 h, 50 μg/cm^2 on artificial diet, second instar larvae, five to seven days, 25° C., read-out: CL % Control (or Mortality) rating; for mortality at 0.05 µg/cm2: 0.05 μg/cm^2; for mortality at 0.05 µg/cm2 / mortality at 0.5 µg/cm2 / mortality at 5 µg/cm2: read-out: CL Percent control (or mortality); for mortality at 0.5 µg/cm2: 0.5 μg/cm^2; for mortality at 5 µg/cm2: 5 μg/cm^2
# Method: Bioassays on CL were conducted using a 128-well diet tray assay. One to five second instar CL larvae were placed in each well (3 mL) of the diet tray that had been previously filled with 1 mL of artificial diet to which 50 μg/cm^2 of the test compound (dissolved in 50 μL of 90:10 acetone-water mixture) had been applied (to each of eight wells) and then allowed to dry. Trays were covered with a clear self-adhesive cover, and held at 25° C., 14:10 light-dark for five to seven days. Percent mortality was recorded for the larvae in each well; activity in the eight wells was then averaged. The results are indicated in the table entitled “Table ABC: Assay Results (F)”, “Table ABCD: Assay Results (C)”, and “Table ABCDE: Assay Results (P)” (See Table Section).
# as §1
SMILES,mortality at 50 µg/cm2 (Beet Armyworm (BAW)) [%],mortality at 50 µg/cm2 (Cabbage Looper (CL)) [%],mortality at 0.05 µg/cm2 (Beet Armyworm (BAW)) [%],mortality at 0.5 µg/cm2 (Beet Armyworm (BAW)) [%],mortality at 5 µg/cm2 (Beet Armyworm (BAW)) [%],mortality at 0.05 µg/cm2 (Cabbage Looper (CL)) [%],mortality at 0.5 µg/cm2 (Cabbage Looper (CL)) [%],mortality at 5 µg/cm2 (Cabbage Looper (CL)) [%]
"C[C@H](NC(=O)CC(F)(F)F)NC(=O)c1ccc(/C=C/C(c2cc(Cl)c(F)c(Cl)c2)C(F)(F)F)cc1C(F)(F)F (stereo partly drawn) [Compound P1, 4-((E)-3-(3,5-Dichloro-4-fluorophenyl)-4,4,4-trifluorobut-1-en-1-yl)-2-(trifluoromethyl)-N—((R)-1-(3,3,3-trifluoropropanamido)ethyl)benzamide]",50 to 100,50 to 100,–,–,–,–,–,–
"Cc1cc(/C=C/C(c2cc(Br)cc(Br)c2)C(F)(F)F)ccc1C(=O)N[C@H](C)NC(=O)CCC(F)(F)F (stereo partly drawn) [Compound P15, 4-((E)-3-(3,5-Dibromophenyl)-4,4,4-trifluorobut-1-en-1-yl)-2-methyl-N—((R)-1-(4,4,4-trifluorobutanamido)ethyl)benzamide]",50 to 100,50 to 100,–,–,–,–,–,–
"CSCCC(=O)N[C@@H](C)NC(=O)c1ccc(/C=C/C(c2cc(Cl)c(Cl)c(Cl)c2)C(F)(F)F)cc1C(F)(F)F (stereo partly drawn) [Compound P53, N—((R)-1-(3-(Methylthio)propanamido)ethyl)-4-((E)-4,4,4-trifluoro-3-(3,4,5-trichlorophenyl)but-1-en-1-yl)-2-(trifluoromethyl)benzamide]",50 to 100,50 to 100,–,–,–,–,–,–
"Cc1cc(/C=C/C(c2cc(Cl)c(Cl)c(Cl)c2)C(F)(F)F)ccc1C(=O)N[C@H](C)NC(=O)CCC(F)(F)F (stereo partly drawn) [Compound P25, 2-Methyl-4-((E)-4,4,4-trifluoro-3-(3,4,5-trichlorophenyl)but-1-en-1-yl)-N—((R)-1-(4,4,4-trifluorobutanamido)ethyl)benzamide]",50 to 100,50 to 100,100,100,100,100,100,100
"C[C@H](NC(=O)CC(F)(F)F)NC(=O)c1ccc(/C=C/C(c2cc(Cl)c(Cl)c(Cl)c2)C(F)(F)F)cc1 (stereo partly drawn) [FC2, 4-((E)-4,4,4-Trifluoro-3-(3,4,5-trichlorophenyl)but-1-en-1-yl)-N—((R)-1-(3,3,3-trifluoropropanamido)ethyl)benzamide]",–,–,0,0,0,0,0,0
"CC(CC(F)(F)F)C(=O)N[C@@H](C)NC(=O)c1ccc(/C=C/C(c2cc(Cl)c(Cl)c(Cl)c2)C(F)(F)F)cc1C(F)(F)F (stereo partly drawn) [Compound P30, N—((R)-1-(4,4,4-Trifluoro-2-methylbutanamido)ethyl)-4-((E)-4,4,4-trifluoro-3-(3,4,5-trichlorophenyl)but-1-en-1-yl)-2-(trifluoromethyl)benzamide]",50 to 100,50 to 100,–,–,–,–,–,–
"C[C@H](NC(=O)CS(C)(=O)=O)NC(=O)c1ccc(/C=C/C(c2cc(Cl)c(Cl)c(Cl)c2)C(F)(F)F)cc1C(F)(F)F (stereo partly drawn) [Compound P43, N—((S)-1-(2-(Methylsulfonyl)acetamido)ethyl)-4-((E)-4,4,4-trifluoro-3-(3,4,5-trichlorophenyl)but-1-en-1-yl)-2-(trifluoromethyl)benzamide]",50 to 100,50 to 100,–,–,–,–,–,–
"CSCC(=O)N[C@@H](C)NC(=O)c1ccc(/C=C/C(c2cc(Cl)c(Cl)c(Cl)c2)C(F)(F)F)cc1C(F)(F)F (stereo partly drawn) [Compound P54, N—((S)-1-(2-(Methylthio)acetamido)ethyl)-4-((E)-4,4,4-trifluoro-3-(3,4,5-trichlorophenyl)but-1-en-1-yl)-2-(trifluoromethyl)benzamide]",50 to 100,50 to 100,–,–,–,–,–,–
